According to publication PMC2633282, “A P2X receptor from the tardigrade species Hypsibius dujardini with fast kinetics and sensitivity to zinc and copper” (BMC Evolutionary Biology, 2009):

Key:
Assay in all cases: two-electrode voltage clamp, Xenopus oocytes
Format in all cases: cell-based
HdP2X [1] = biological target: T1, HdP2X (Hypsibius dujardini, UniProt B8RGS2)
T1 construct: full-length, 480 residues, cDNA clone in pSPORT1; cRNA in Xenopus oocytes; P2X receptors are trimers
T1 sequence (B8RGS2 1-480): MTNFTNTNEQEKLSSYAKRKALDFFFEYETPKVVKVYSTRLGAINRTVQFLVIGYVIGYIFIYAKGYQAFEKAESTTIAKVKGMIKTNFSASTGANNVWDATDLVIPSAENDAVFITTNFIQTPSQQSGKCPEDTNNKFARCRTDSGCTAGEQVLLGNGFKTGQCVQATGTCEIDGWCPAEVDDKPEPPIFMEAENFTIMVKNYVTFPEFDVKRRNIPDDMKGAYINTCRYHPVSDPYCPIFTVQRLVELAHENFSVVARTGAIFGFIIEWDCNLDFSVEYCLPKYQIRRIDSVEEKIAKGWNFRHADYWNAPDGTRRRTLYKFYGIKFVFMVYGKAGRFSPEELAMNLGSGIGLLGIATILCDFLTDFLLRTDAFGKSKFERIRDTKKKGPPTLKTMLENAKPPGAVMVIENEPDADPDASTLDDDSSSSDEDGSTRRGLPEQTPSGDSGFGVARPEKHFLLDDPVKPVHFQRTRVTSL

HdP2X [2] = biological target: T1, HdP2X; remark: listed apart in the source
HdP2X [3] = biological target: T1, HdP2X; conditions: agonist; -60 mV; ND96 with Ba2+ for Ca2+, pH 7.5

SMILES | EC50 (HdP2X [1]) [µM] | IC50 (HdP2X [2]) [µM] | other results
Nc1ncnc2c1ncn2[C@@H]1O[C@H](COP(=O)(O)OP(=O)(O)OP(=O)(O)O)[C@@H](O)[C@H]1O [ATP] | 44.5 | – | –
Cc1nc(N=Nc2ccc(S(=O)(=O)O)cc2S(=O)(=O)O)c(COP(=O)(O)O)c(C=O)c1O [PPADS, pyridoxal-phosphate-6-azophenyl-2',4'-disulfonic acid] | – | 15 | –
Nc1ncnc2c1ncn2[C@@H]1O[C@H](COP(=O)(O)OP(=O)(O)OP(=O)(O)O)[C@@H](OC(=O)c2ccc(C(=O)c3ccccc3)cc2)[C@H]1O [Bz-ATP, 2',3'-O-4-Benzoylbenzoyl ATP] | 12.2 | – | –
Cc1ccc(C(=O)Nc2ccc(S(=O)(=O)O)c3cc(S(=O)(=O)O)cc(S(=O)(=O)O)c23)cc1NC(=O)c1cccc(NC(=O)Nc2cccc(C(=O)Nc3cc(C(=O)Nc4ccc(S(=O)(=O)O)c5cc(S(=O)(=O)O)cc(S(=O)(=O)O)c45)ccc3C)c2)c1 [suramin] | – | 22.6 | –
Nc1ncnc2c1ncn2[C@@H]1O[C@H](COP(=O)(O)CP(=O)(O)OP(=O)(O)O)[C@@H](O)[C@H]1O [αβ-methylene ATP, α,β-methylene-adenosine 5'-triphosphate] | – | – | % of 100 μM ATP response at 100 μM (HdP2X [3]): < 50%
